Source: patent US8541449B2, “Substituted isoquinolines and isoquinolinones as Rho kinase inhibitors” (Sanofi, priority 2008, dated 2013)

Assays:
Format in all cases: biochemical
recombinant human PKA = biological target: T1, recombinant human PKA (Homo sapiens, UniProt P17612); experiment: Determination of Protein Kinase A inhibition (Caliper peptide phosphorylation assay); conditions: recombinant human PKA versus ROCK II
T1 construct: Active recombinant human PKA (residues 1-351, N-terminal His-tag); His-tag (N); purchased Invitrogen, Karlsruhe, Germany
Summary of the method: (§1)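 Full-length His-tagged PKG1-beta (150 ng/ml working) or His-tagged PKA residues 1-351 (30 ng/ml working) was mixed with compound in pH 7.4 Tris/MgCl2/DTT buffer. Fluorescein-peptide substrate and ATP (3 μM and 120 μM working) were then added for 60 min at 32 °C before an EDTA stop. Phosphopeptide was separated electrophoretically on a Caliper instrument to derive IC50.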

[1] = biological target: T2, human recombinant ROCK II (Homo sapiens, UniProt O75116); experiment: Determination of Rho kinase inhibition (Caliper peptide phosphorylation assay); conditions: 60 min at 32° C., negative decadal logarithm of the IC50
T2 construct: N-terminal His6-tagged recombinant human ROCK-II residues 11-552; His6 (N); purchased Millipore GmbH, Schwalbach, Germany
T2 sequence (O75116 11-552): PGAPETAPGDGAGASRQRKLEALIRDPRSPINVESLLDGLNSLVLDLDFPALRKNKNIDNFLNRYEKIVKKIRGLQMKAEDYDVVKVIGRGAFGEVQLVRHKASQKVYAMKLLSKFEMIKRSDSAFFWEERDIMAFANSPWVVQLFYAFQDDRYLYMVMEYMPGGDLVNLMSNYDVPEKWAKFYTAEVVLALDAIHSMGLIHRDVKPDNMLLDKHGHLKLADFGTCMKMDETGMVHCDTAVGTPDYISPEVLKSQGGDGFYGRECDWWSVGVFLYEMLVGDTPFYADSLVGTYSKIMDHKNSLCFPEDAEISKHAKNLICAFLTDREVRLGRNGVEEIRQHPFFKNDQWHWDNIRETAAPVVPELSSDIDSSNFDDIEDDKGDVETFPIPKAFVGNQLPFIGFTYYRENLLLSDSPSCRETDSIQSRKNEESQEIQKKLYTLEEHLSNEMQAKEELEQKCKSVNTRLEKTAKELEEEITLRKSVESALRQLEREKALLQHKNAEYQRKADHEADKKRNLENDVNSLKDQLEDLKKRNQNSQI
Summary of the method: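 His6-tagged human ROCK II (residues 11-552) phosphorylated a fluorescein-labelled peptide for 60 min at 32° C in Tris-HCl pH 7.4 with MgCl2, DTT and BSA, using 3 μM peptide and 120 μM ATP as diluted stocks. EDTA-stopped; phosphopeptide separated and detected by Caliper mobility shift; IC50 determined.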

[2] = biological target: T3, recombinant human PKG1-beta (Homo sapiens, UniProt Q13976); experiment: Determination of Protein Kinase G inhibition (Caliper peptide phosphorylation assay); conditions: recombinant human PKG1-beta versus ROCK II
T3 construct: Active recombinant human PKG1-beta (full-length, with N-terminal His-tag); His-tag (N); purchased Millipore GmbH, Schwalbach, Germany
T3 sequence (Q13976 1-686 isoform Q13976-2): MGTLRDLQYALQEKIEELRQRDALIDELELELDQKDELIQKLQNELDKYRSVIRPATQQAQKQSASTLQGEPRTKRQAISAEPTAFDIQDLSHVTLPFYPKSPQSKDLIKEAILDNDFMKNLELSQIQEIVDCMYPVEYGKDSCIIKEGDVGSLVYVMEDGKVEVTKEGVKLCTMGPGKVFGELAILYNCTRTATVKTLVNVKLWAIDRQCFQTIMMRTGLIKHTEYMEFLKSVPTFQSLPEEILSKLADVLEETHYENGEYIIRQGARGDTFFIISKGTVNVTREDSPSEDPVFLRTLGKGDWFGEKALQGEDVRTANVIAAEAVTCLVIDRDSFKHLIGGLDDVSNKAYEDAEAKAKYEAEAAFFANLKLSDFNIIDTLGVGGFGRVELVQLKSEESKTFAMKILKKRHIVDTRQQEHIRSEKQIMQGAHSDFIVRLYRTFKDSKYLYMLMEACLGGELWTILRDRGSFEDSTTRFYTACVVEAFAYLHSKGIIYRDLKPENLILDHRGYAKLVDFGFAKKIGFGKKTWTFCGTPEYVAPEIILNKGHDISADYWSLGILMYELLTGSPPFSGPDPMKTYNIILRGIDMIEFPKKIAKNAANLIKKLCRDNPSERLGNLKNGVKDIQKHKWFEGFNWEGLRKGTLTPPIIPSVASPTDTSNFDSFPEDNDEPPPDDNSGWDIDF
Summary of the method: as §1

CCC(N)[C@]1(c2ccc(C(C)C)cc2)CC[C@H](Oc2cc3cc[nH]c(=O)c3cc2Cl)CC1 (stereo partly drawn) [Example 27, cis-6-[4-(1-Amino-propyl)-4-(4-isopropyl-phenyl)-cyclohexyloxy]-7-chloro-2H-iso quinolin-1-one]
Selectivity against PKA (recombinant human PKA): >100 | pIC50 [1]: ++++++ (7.0≦pIC50<8.0) | Selectivity against PKG [2]: >10

CCC(N)[C@]1(c2cccc(Br)c2)CC[C@@H](Oc2cc3cc[nH]c(=O)c3cc2Cl)CC1 (stereo partly drawn) [Example 16, trans-6-[4-(1-Amino-propyl)-4-(3-bromo-phenyl)-cyclohexyloxy]-7-chloro-2H-iso quinolin-1-one]
Selectivity against PKA (recombinant human PKA): >300 | pIC50 [1]: ++++++ (7.0≦pIC50<8.0) | Selectivity against PKG [2]: >100

CCC(N)[C@]1(c2ccc(F)cc2C)CC[C@H](Oc2cc3cc[nH]c(=O)c3cc2Cl)CC1 (stereo partly drawn) [Example 57, cis-6-[4-(1-Amino-propyl)-4-(4-fluoro-2-methyl-phenyl)cyclohexyloxy]-7-chloro-2H-isoquinolin-1-one]
Selectivity against PKA (recombinant human PKA): >1000 | pIC50 [1]: +++++++ (8.0≦pIC50) | Selectivity against PKG [2]: >300

CCC(N)[C@]1(c2ccc(C#N)cc2)CC[C@H](Oc2cc3cc[nH]c(=O)c3cc2Cl)CC1 (stereo partly drawn) [Example 97, cis-4-[1-(1-Amino-propyl)-4-(7-chloro-1-oxo-1,2-dihydro-isoquinolin-6-yloxy)-cyclohexyl]benzonitrile]
Selectivity against PKA (recombinant human PKA): >1000 | pIC50 [1]: +++++++ (8.0≦pIC50) | Selectivity against PKG [2]: >300

cis-6-[4-(1- Amino-propyl)-4- (3-bromo- phenyl)-cyclo hexyloxy]-7- chloro-2H-iso quinolin-1-one [Example 29]
Selectivity against PKA (recombinant human PKA): >1000 | pIC50 [1]: +++++++ (8.0≦pIC50) | Selectivity against PKG [2]: >1000

CCC(N)[C@]1(c2ccccc2Cl)CC[C@H](Oc2cc3cc[nH]c(=O)c3cc2Cl)CC1 (stereo partly drawn) [Example 10, cis-6-[4-(1-Amino-propyl)-4-(2-chloro-phenyl)-cyclohexyloxy]-7-chloro-2H-iso quinolin-1-one]
Selectivity against PKA (recombinant human PKA): >100 | pIC50 [1]: +++++++ (8.0≦pIC50) | Selectivity against PKG [2]: >100

NC(C1CC1)[C@]1(c2ccccc2)CC[C@H](Oc2cc3cc[nH]c(=O)c3cc2Cl)CC1 (stereo partly drawn) [Example 26]
Selectivity against PKA (recombinant human PKA): >1000 | pIC50 [1]: +++++++ (8.0≦pIC50) | Selectivity against PKG [2]: >300

COc1ccc(C(N)[C@H]2CC[C@@H](Oc3cc4cc[nH]c(=O)c4cc3Cl)CC2)cc1 (single isomer, unassigned) [Example 35, 6-{4-[Amino-(4-methoxy-phenyl)-methyl]-cyclohexyloxy}-7-chloro-2H-isoquinolin-1-one]
Selectivity against PKA (recombinant human PKA): >1000 | IC50 [1]: ≤ 0.01 µM | Selectivity against PKG [2]: >100

NC1([C@]2(c3ccccc3)CC[C@H](Oc3cc4cc[nH]c(=O)c4cc3Cl)CC2)CC1 [Example 2, cis-6-[4-(1-Amino-cyclopropyl)-4-phenyl-cyclohexyloxy]-7-chloro-2H-isoquinolin-1-one]
Selectivity against PKA (recombinant human PKA): >1000 | pIC50 [1]: +++++++ (8.0≦pIC50) | Selectivity against PKG [2]: >1000

NC(C1CC1)[C@]1(c2ccc(F)cc2)CC[C@H](Oc2cc3cc[nH]c(=O)c3cc2Cl)CC1 (stereo partly drawn) [Example 82, cis-6-[4-(Amino-cyclopropyl-methyl)-4-(4-fluoro-phenyl)-cyclohexyloxy]-7-chloro-2H-isoquinolin-1-one]
Selectivity against PKA (recombinant human PKA): >1000 | pIC50 [1]: +++++++ (8.0≦pIC50) | Selectivity against PKG [2]: >1000

CC(C)C(N)[C@]1(c2ccccc2)CC[C@@H](Oc2cc3cc[nH]c(=O)c3cc2Cl)CC1 (stereo partly drawn) [Example 19, trans-6-[4-(1-Amino-2-methyl-propyl)-4-phenyl-cyclohexyloxy]-7-chloro-2H-iso quinolin-1-one]
Selectivity against PKA (recombinant human PKA): >100 | pIC50 [1]: +++++ (6.0≦pIC50<7.0) | Selectivity against PKG [2]: >100

CCC(N)[C@]1(c2ccccc2)CC[C@H](Oc2cc3cc[nH]c(=O)c3cc2C)CC1 (stereo partly drawn) [Example 11, cis-6-[4-(1-Amino-propyl)-4-phenyl-cyclohexyloxy]-7-methyl-2H-iso quinolin-1-one]
Selectivity against PKA (recombinant human PKA): >300 | pIC50 [1]: ++++++ (7.0≦pIC50<8.0) | Selectivity against PKG [2]: >10

CCCC(C)(N)C1CCC(Oc2cc3cc[nH]c(=O)c3cc2Cl)CC1 (single isomer, unassigned) [Example 121, 6-{4-[1-Amino-1-n-propyl-ethyl]-cyclohexyloxy}-7-chloro-2H-isoquinolin-1-one]
Selectivity against PKA (recombinant human PKA): >100 | IC50 [1]: 0.01 to 0.1 µM | Selectivity against PKG [2]: >10

CCC(N)[C@]1(c2ccc(C(F)(F)F)cc2)CC[C@H](Oc2cc3cc[nH]c(=O)c3cc2Cl)CC1 (stereo partly drawn) [Example 8, cis-6-[4-(1-Amino-propyl)-4-(4-trifluoromethyl-phenyl)-cyclo-hexyloxy]-7-chloro-2H-isoquinolin-1-one]
Selectivity against PKA (recombinant human PKA): >1000 | pIC50 [1]: +++++++ (8.0≦pIC50) | Selectivity against PKG [2]: >300

NC(c1ccccc1)C1(c2ccccc2)CCC(Oc2cc3cc[nH]c(=O)c3cc2Cl)CC1 (single isomer, unassigned) [Example 41]
Selectivity against PKA (recombinant human PKA): >10 | IC50 [1]: 0.1 to 1 µM | Selectivity against PKG [2]: >10

CCC(N)C[C@]1(c2ccc(F)cc2)CC[C@H](Oc2cc3cc[nH]c(=O)c3cc2Cl)CC1 (stereo partly drawn) [Example 110, cis-6-[4-(2-Amino-butyl)-4-(4-fluoro-phenyl)-cyclohexyloxy]-7-chloro-2H-isoquinolin-1-one]
Selectivity against PKA (recombinant human PKA): >300 | pIC50 [1]: ++++++ (7.0≦pIC50<8.0) | Selectivity against PKG [2]: >100

Cc1ccc(C(N)C2CCC(Oc3cc4cc[nH]c(=O)c4cc3Cl)CC2)cc1 (single isomer, unassigned) [Example 38, 6-[4-(Amino-p-tolyl-methyl)-cyclohexyloxy]-7-chloro-2H-isoquinolin-1-one]
Selectivity against PKA (recombinant human PKA): >1000 | IC50 [1]: ≤ 0.01 µM | Selectivity against PKG [2]: >300

CCC(N)[C@]1(c2ccccc2OC)CC[C@H](Oc2cc3cc[nH]c(=O)c3cc2Cl)CC1 (stereo partly drawn) [Example 69, cis-6-[4-(1-Amino-propyl)-4-(2-methoxy-phenyl)-cyclohexyloxy]-7-chloro-2H isoquinolin-1-one]
Selectivity against PKA (recombinant human PKA): >1000 | pIC50 [1]: +++++++ (8.0≦pIC50) | Selectivity against PKG [2]: >300

CC(N)[C@]1(c2ccc(F)cc2)CC[C@H](Oc2cc3cc[nH]c(=O)c3cc2Cl)CC1 (stereo partly drawn) [Example 15, cis-6-[4-(1-Amino-ethyl)-4-(4-fluoro-phenyl)-cyclo-hexyloxy]-7-chloro-2H-iso quinolin-1-one]
Selectivity against PKA (recombinant human PKA): >1000 | pIC50 [1]: +++++++ (8.0≦pIC50) | Selectivity against PKG [2]: >300

CCCC(N)[C@]1(c2ccccc2)CC[C@@H](Oc2cc3cc[nH]c(=O)c3cc2Cl)CC1 (stereo partly drawn) [Example 14, trans-6-[4-(1-Amino-butyl)-4-phenyl-cyclohexyloxy]-7-chloro-2H-isoquinolin-1-one]
Selectivity against PKA (recombinant human PKA): >100 | pIC50 [1]: +++++ (6.0≦pIC50<7.0) | Selectivity against PKG [2]: >100

CCC(N)[C@]1(c2cccc(S(C)(=O)=O)c2)CC[C@H](Oc2cc3cc[nH]c(=O)c3cc2Cl)CC1 (stereo partly drawn) [Example 99, cis-6-[4-(1-Amino-propyl)-4-(3-methanesulfonyl-phenyl)-cyclohexyloxy]-7-chloro-2H-isoquinolin-1-one]
Selectivity against PKA (recombinant human PKA): >1000 | pIC50 [1]: +++++++ (8.0≦pIC50) | Selectivity against PKG [2]: >100
